Measurements reported in US6841177B1, “Pharmacological activities of curcuma longa extracts” (ASAC Compania de Biotecnologia e Investigacion S.A., priority 1999, dated 2005).
“Also recorded” adds a separate entry of the source.

Tested on: HaCat cells
Assay: Incorporation of BrdU in the DNA of human keratinocytes after radiation with ultraviolet light
Type: cell-based
Protocol: Culture of the HaCat line
The HaCat line is an immortalized line of normal human keratinocytes. These cells grow in a culture medium consisting of Hanks liquid to which 5% of foetal bovine serum and 2% of penicillin-streptomycin is added at 37° C. in a CO2 atmosphere.
To determine the replication rate, the cells were grown in microplates at a density of 2*10^4 cells per matrix. After 24 hours of treatment, the media was renewed and the cultures were incubated for 24 hours at 37° C. with different concentrations of the extracts and different concentrations of the curcumin and psoralen. Parallel controls were carried out with the solvent (ethanol 0.1%). The incorporation of BrdU was determined with the ELISA test.
The cells were radiated with UVA light at an intensity of 1 J/cm^2 and the incorporation of BrdU was then analysed.

[1] = after UVA radiation, human keratinocytes

`O=c1ccc2cc3ccoc3cc2o1` [psoralen] was tested, and the “toxicity at the dose giving the same photosensitivisation as Curcuma extracts” value (10 ng/ml) was “toxic doses; also recorded: toxic and mutagenic effects are produced” and the “dose required to produce the same level of photosensitivisation as Curcuma extracts” value (after UV radiation, BrdU incorporation) was 10 ng/mL.

With `COc1cc(/C=C/C(=O)CC(=O)/C=C/c2ccc(O)c(OC)c2)ccc1O` [curcumin] the “amount for 20 % incorporation of BrdU” value [1] was 1200 ng, the “amount for 40 % incorporation of BrdU” value [1] was 1000 ng and the “amount for 60 % incorporation of BrdU” value [1] was 800 ng. The “amount for 80 % incorporation of BrdU” value [1] was 600 ng.
